Source: patent US20040162247A1, “Therapeutic agent or osteoporosis comprising an active ingredient of quercetin derivatives” (priority 2000, published 2004)
Where “and” joins values, the source holds several entries; their conditions need not be identical. Identical values can stand only once.

Legend:
[1] = test system: ovariectomized rats; experiment: Trabecular bone area of lumbars in ovariectomized rats;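 for Change Rate (%) of TBA of lumbars, of control group: control group rats were ovariectomized and are not the sham group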; format: in vivo, Female SD (Sprague-Dawley) rats; settings: OVX rats, 9 weeks i.p. (E2 1 μg/kg/day; quercetin, genistein 10 mg/kg/day)
Description: (§1) Trabecular bone area (TBA) of lumbar and tibia removed from the rats of each group which was treated with various agents for 9 weeks were measured as follows: that is, using a digitalizer of quantitative image analysis system (Wild Leitz Co.), image of each trabecula was obtained on computer monitor by drawing a contour of the trabecula, and then, using a computer, calculated were average areas of trabeculae within a rectangle of 2×10^6 μm^2 area wherein the width is about ⅔ of the length of growth plate which located underneath of growth plate at proximity of tibia. Also, following the number of trabeculae within the rectangle were obtained, average area was multiplied by the number of trabeculae to obtain trabecular bone area of each sample bone, which was analyzed statistically (see: Table 5).
TBAs of lumbars removed from the animal treated with test agents for 9 weeks were measured employing the same method above (see: Table 6).

[2] = test system: ovariectomized rats; experiment: Trabecular bone area of tibia in ovariectomized rats;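 for Change Rate (%) of TBA of tibia, of control group: control group rats were ovariectomized and are not the sham group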; format: in vivo, Female SD (Sprague-Dawley) rats; settings: OVX rats, 9 weeks i.p. (E2 1 μg/kg/day; quercetin, genistein 10 mg/kg/day)
Description: as §1

[3] = test system: ovariectomized rats; experiment: Complete blood count in ovariectomized rats; format: in vivo, Female SD (Sprague-Dawley) rats; settings: rat, in vivo
Description: (§2) When test agents were administered, for a certain period of time before and after administration, 1.5 ml of blood was sampled from tail vein using a catheter (B.D Co.: 24 G) and subjected to complete blood count (Coulter Co.: JT) and biochemical analyses of plasma (Crone Co.: Airon® 200). During autopsy, blood was sampled from caudal venae cavae and subjected to the analyses above. And then, each sample was frozen to store for measurement of trabecular bone area of femur and examination of internal organs.
Complete blood count which reflects the condition and abnormality of the body was measured to find out abnormality in test animals caused by administrtion of agents. That is, to find out changes in hematopoiesis of test rats, measured were red blood cell (RBC) count, concentration of hemoglobin (Hb) and hematocrit (Ht) of-blood samples obtained from the rats prior to operation and the rats 10 weeks after administrating agents following operation, and to find out changes in immune system such as inflammation and necrosis of tissues, measured were white blood cell count, lymphocyte count, monocyte count, and granulocyte count (see: Table 7).

[4] = rat, in vivo
Description: Female SD (Sprague-Dawley) rats, a model animal for type I osteoporosis occurring after menopause were employed for evaluating pharmacological effectiveness of quercetin. Female rats (10 weeks old) weighing 200 to 300 g, obtained from the Korea Research Institute of Chemical Technology were employed as experimental animals. Experiment was carried out by the procedure which comprises removing ovary, administration of agents to the each group of rats, and at certain days after ovariectomy, the rats were sacrificed and subjected to analyses including measurement of body weight, examination of internal organs, measurement of trabecular bone area, complete blood count, and biochemical analyses of plasma.
The Sham group, animals operated upon for the surgery as in the ovariectomized rats except for removing ovary, were employed to compare the changes caused solely by ovariectomy in control group which were ovariectomized but no agent was administered. Control group was employed to compare the changes caused by administration of agents in test group which were ovariectomized and administered with testing agents.
During the period of administration, blood was sampled once a week. After 9-week administration, entire blood was withdrawn with heparin treatment. Following complete blood count (CBC), the blood was centrifuged at 3,000 rpm for 20 minutes to obtain plasma which was stored at −70° C. until use. For measurement of bone mineral density, the lumbar spine L5 and L6, and right tibia were removed and stored separately in 4% (v/v) formalin solution.

[5] = test system: ovariectomized rats; experiment: Biochemical parameters in plasma of ovariectomized rats; format: in vivo, Female SD (Sprague-Dawley) rats; settings: rat, in vivo
Description: as §2
Since blood reflects the condition of body, safety of quercetin in the body was evaluated by measuring biochemical parameters: that is, blood samples were obtained from the rat prior to operation, one week after operation, and 10 weeks after operation, and measured were levels of alkaline phosphatase (ALP), calcium, inorganic phosphate, blood urea nitrogen (BUN), creatinin, total cholesterol, HDL-cholesterol and LDL-cholesterol (see: Table 8).

- Concentration of hemoglobin(Hb) [3]: 15.86 ± 0.24 g/dL
- Hematocrit(Ht) [3]: 43.11 ± 0.55%
- Lymphocyte and granulocyte count, before versus after operation (in words) [3]: rapid decrease
- Lymphocyte count [3]: 17.80 ± 1.72 ×10^3 cells/μl
- Red blood cell(RBC) count [3]: 7.33 ± 0.13 ×10^6 cells/μl
- White blood cell count [3]: 23.14 ± 1.50 ×10^3 cells/μl
- White blood cell count, before versus after operation (in words) [3]: decreased
- Weight [4]: 228.51 ± 8.11 g
- Concentration of ALP in plasma [5]: 196.01 ± 28.34 U/dL
- Concentration of HDL-cholesterol in plasma [5]: 52.30 ± 2.01 mg/dL
- Concentration of LDL-cholesterol in plasma [5]: 24.49 ± 1.63 mg/dL
- Concentration of blood urea nitrogen (BUN) [5]: 18.36 ± 1.01 mg/dL
- Concentration of calcium in plasma [5]: 10.86 ± 0.40 mg/dL
- Concentration of creatinin in plasma [5]: 0.55 ± 0.05 mg/dL
- Concentration of inorganic phosphate in plasma [5]: 6.90 ± 0.52 mg/dL
- Concentration of total cholesterol in plasma [5]: 76.79 ± 2.80 mg/dL
SMILES: C[C@]12CC[C@@H]3c4ccc(O)cc4CC[C@H]3[C@@H]1CC[C@@H]2O [E2, 17β-estradiol]
- TBA (trabecular bone area) of lumbars [1]: 89.16 ± 2.83 ×10^4 μm^2
- Change Rate (%) of TBA of lumbars, of control group ([1]; control group = 100): 132% and 132.04 ± 4.19 %
- TBA (trabecular bone area) of tibia [2]: 51.40 ± 2.28 ×10^4 μm^2
- Change Rate (%) of TBA of tibia, of control group ([2]; control group = 100): 148% and 148.46 ± 6.59%
